Measurements reported in patent US11453683B1, “KRas G12D inhibitors” (Mirati Therapeutics, Inc., priority 2019, dated 2022).
pIC50: −log10 of the molar value.

These compounds were tested on KRas G12D-mediated phosphorylation of ERK (assay: Inhibition of KRas G12D-mediated phosphorylation of ERK in AGS cells). Details: Homo sapiens; AGS cells expressing G12D, 3 hours, phospho-ERK normalized to GAPDH.
Type: cell-based
Method in brief: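 In-cell Western: p-ERK Thr202/Tyr204 signal over GAPDH, as % of DMSO control, with IC50 from a 4-parameter curve. AGS cells seeded 40,000/well for 12-14 h, exposed to compound 3 h at 0.5% DMSO final, then formaldehyde-fixed and methanol-permeabilized.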
Work on CN1CCC[C@H]1COc1nc(N2CC3C[C@@H](O)C(C2)N3)c2cnc(-c3cc(O)cc4ccccc34)c(F)c2n1 (stereo partly drawn) [Example 31, 3-(8-fluoro-7-(3-hydroxynaphthalen-1-yl)-2-(((S)-1-methylpyrrolidin-2-yl)methoxy)pyrido[4,3-d]pyrimidin-4-yl)-3,8-diazabicyclo[3.2.1]octan-6-ol] yielded a pIC50 of 5.62.
For O[C@@H]1C[C@@H]2CN(c3nc(OCCc4ccc(F)cn4)nc4c(F)c(-c5cccc6cccc(Cl)c56)ncc34)C[C@H]1N2 [Example 32, (1R,5R,6R)-3-(7-(8-chloronaphthalen-1-yl)-8-fluoro-2-(2-(5-fluoropyridin-2-yl)ethoxy)pyrido[4,3-d]pyrimidin-4-yl)-3,8-diazabicyclo[3.2.1]octan-6-ol], the pIC50 was < 4.30.
Compound CO[C@@H]1C[C@@H](COc2nc(N3C[C@H]4CC[C@@H](C3)N4)c3cnc(-c4cccc5cccc(Cl)c45)c(F)c3n2)N(C)C1 [Example 34, 4-((1R,5S)-3,8-diazabicyclo[3.2.1]octan-3-yl)-7-(8-chloronaphthalen-1-yl)-8-fluoro-2-(((2S,4R)-4-methoxy-1-methylpyrrolidin-2-yl)methoxy)pyrido[4,3-d]pyrimidine] has a pIC50 of 5.38.
OCC(CO)COc1nc(N2C[C@H]3CC[C@@H](C2)N3)c2cnc(-c3cccc4cccc(Cl)c34)c(F)c2n1 [Example 35, 2-(((4-((1R,5S)-3,8-diazabicyclo[3.2.1]octan-3-yl)-7-(8-chloronaphthalen-1-yl)-8-fluoropyrido[4,3-d]pyrimidin-2-yl)oxy)methyl)propane-1,3-diol] gave a pIC50 of 4.95.
Compound Oc1cc(-c2ncc3c(N4C[C@H]5CC[C@@H](C4)N5)nc(OCC45CCCN4CCC5)nc3c2F)c2c(Cl)cccc2c1 [Example 36, 4-(4-((1R,5S)-3,8-diazabicyclo[3.2.1]octan-3-yl)-8-fluoro-2-((tetrahydro-1H-pyrrolizin-7a(5H)-yl)methoxy)pyrido[4,3-d]pyrimidin-7-yl)-5-chloronaphthalen-2-ol] has a pIC50 of 6.97.
Work on Oc1cc(-c2ncc3c(N4C[C@H]5CC[C@@H](C4)N5)nc(OC[C@@H]4CC5CCN4C5)nc3c2F)c2ccccc2c1 [Example 40, 4-(2-(((2S)-1-azabicyclo[2.2.1]heptan-2-yl)methoxy)-4-((1R,5S)-3,8-diazabicyclo[3.2.1]octan-3-yl)-8-fluoropyrido[4,3-d]pyrimidin-7-yl)naphthalen-2-ol] yielded a pIC50 of 5.37.
COCCCN1CCC(Oc2nc(N3C[C@H]4CC[C@@H](C3)N4)c3cnc(-c4cc(O)cc5ccccc45)c(F)c3n2)CC1 [Example 41, 4-(4-((1R,5S)-3,8-diazabicyclo[3.2.1]octan-3-yl)-8-fluoro-2-((1-(3-methoxypropyl)piperidin-4-yl)oxy)pyrido[4,3-d]pyrimidin-7-yl)naphthalen-2-ol] was tested, and the pIC50 was 5.18.
CO[C@@H]1C[C@@H](COc2nc(N3C[C@H]4CC[C@@H](C3)N4)c3cnc(-c4cc(O)cc5ccccc45)c(F)c3n2)N(C)C1 [Example 42, 4-(4-((1R,5S)-3,8-diazabicyclo[3.2.1]octan-3-yl)-8-fluoro-2-(((2S,4R)-4-methoxy-1-methylpyrrolidin-2-yl)methoxy)pyrido[4,3-d]pyrimidin-7-yl)naphthalen-2-ol] gave a pIC50 of 6.20.
Compound CCO[C@@H]1C[C@@H](COc2nc(N3C[C@H]4CC[C@@H](C3)N4)c3cnc(-c4cccc5cccc(Cl)c45)c(F)c3n2)N(C)C1 [Example 43, 4-((1R,5S)-3,8-diazabicyclo[3.2.1]octan-3-yl)-7-(8-chloronaphthalen-1-yl)-2-(((2S,4R)-4-ethoxy-1-methylpyrrolidin-2-yl)methoxy)-8-fluoropyrido[4,3-d]pyrimidine] has a pIC50 of 5.21.
With CN1CCC[C@H]1COc1nc(N2C[C@H]3CC[C@@H](C2)N3)c2cnc(-c3cccc4ccc(F)c(Cl)c34)c(F)c2n1 [Example 44, 4-((1R,5S)-3,8-diazabicyclo[3.2.1]octan-3-yl)-7-(8-chloro-7-fluoronaphthalen-1-yl)-8-fluoro-2-(((S)-1-methylpyrrolidin-2-yl)methoxy)pyrido[4,3-d]pyrimidine] the pIC50 was 5.64.
Compound Fc1c(-c2cccc3cccc(Cl)c23)ncc2c(N3C[C@H]4CC[C@@H](C3)N4)nc(OCC34CCCN3CCC4)nc12 [Example 45, 4-((1R,5S)-3,8-diazabicyclo[3.2.1]octan-3-yl)-7-(8-chloronaphthalen-1-yl)-8-fluoro-2-((tetrahydro-1H-pyrrolizin-7a(5H)-yl)methoxy)pyrido[4,3-d]pyrimidine] has a pIC50 of 6.08.
CCCOc1nc(N2C[C@H]3CC[C@@H](C2)N3)c2cnc(-c3cc(O)cc4ccccc34)c(F)c2n1 [Example 47, 4-(4-((1R,5S)-3,8-diazabicyclo[3.2.1]octan-3-yl)-8-fluoro-2-propoxypyrido[4,3-d]pyrimidin-7-yl)naphthalen-2-ol] showed a pIC50 of 5.35.
With Oc1cc(-c2ncc3c(N4C[C@H]5CC[C@@H](C4)N5)nc(OCC(F)(F)F)nc3c2F)c2ccccc2c1 [Example 48, 4-(4-((1R,5S)-3,8-diazabicyclo[3.2.1]octan-3-yl)-8-fluoro-2-(2,2,2-trifluoroethoxy)pyrido[4,3-d]pyrimidin-7-yl)naphthalen-2-ol] the pIC50 was 5.31.
Oc1cc(-c2ncc3c(N4C[C@H]5CC[C@@H](C4)N5)nc(OC[C@@H]4CCCN4)nc3c2F)c2ccccc2c1 [Example 50, 4-(4-((1R,5S)-3,8-diazabicyclo[3.2.1]octan-3-yl)-8-fluoro-2-(((S)-pyrrolidin-2-yl)methoxy)pyrido[4,3-d]pyrimidin-7-yl)naphthalen-2-ol] gave a pIC50 of 4.81.
For Oc1cc(-c2ncc3c(N4C[C@H]5CC[C@@H](C4)N5)nc(OCC4(C(F)(F)F)CC4)nc3c2F)c2ccccc2c1 [Example 51, 4-(4-((1R,5S)-3,8-diazabicyclo[3.2.1]octan-3-yl)-8-fluoro-2-((1-(trifluoromethyl)cyclopropyl)methoxy)pyrido[4,3-d]pyrimidin-7-yl)naphthalen-2-ol], the pIC50 was 4.92.
With Oc1cc(-c2ncc3c(N4C[C@H]5CC[C@@H](C4)N5)nc(OCC(F)(F)C(F)F)nc3c2F)c2ccccc2c1 [Example 52, 4-(4-((1R,5S)-3,8-diazabicyclo[3.2.1]octan-3-yl)-8-fluoro-2-(2,2,3,3-tetrafluoropropoxy)pyrido[4,3-d]pyrimidin-7-yl)naphthalen-2-ol] the pIC50 was 5.08.
With Fc1c(-c2cccc3cccc(Cl)c23)ncc2c(N3C[C@H]4CC[C@@H](C3)N4)nc(OCC34CCCCN3CCC4)nc12 (stereo partly drawn) [Example 54, 4-((1R,5S)-3,8-diazabicyclo[3.2.1]octan-3-yl)-7-(8-chloronaphthalen-1-yl)-8-fluoro-2-((hexahydroindolizin-8a(1H)-yl)methoxy)pyrido[4,3-d]pyrimidine] the pIC50 was < 4.78.
CN1CCC[C@H]1COc1nc(N2C[C@H]3CC[C@@H](C2)N3)c2cnc(-c3cc(O)cc4cccc(Cl)c34)c(F)c2n1 [Example 63, 4-(4-((1R,5S)-3,8-diazabicyclo[3.2.1]octan-3-yl)-8-fluoro-2-(((S)-1-methylpyrrolidin-2-yl)methoxy)pyrido[4,3-d]pyrimidin-7-yl)-5-chloronaphthalen-2-ol] was tested, and the pIC50 was 6.73.
CC(C)(C)[Si](C)(C)OCC1CCC2(COc3nc(N4C[C@H]5CC[C@@H](C4)N5)c4cnc(-c5cccc6cccc(Cl)c56)c(F)c4n3)CCCN12 (stereo partly drawn) [Example 64, 4-((1R,5S)-3,8-diazabicyclo[3.2.1]octan-3-yl)-2-((3-(((tert-butyldimethylsilyl)oxy)methyl)tetrahydro-1H-pyrrolizin-7a(5H)-yl)methoxy)-7-(8-chloronaphthalen-1-yl)-8-fluoropyrido[4,3-d]pyrimidine] showed a pIC50 of 5.40.
Compound COCCCOc1nc(N2C[C@H]3CC[C@@H](C2)N3)c2cnc(-c3cc(O)cc4ccccc34)c(F)c2n1 [Example 68, 4-(4-((1R,5S)-3,8-diazabicyclo[3.2.1]octan-3-yl)-8-fluoro-2-(3-methoxypropoxy)pyrido[4,3-d]pyrimidin-7-yl)naphthalen-2-ol] has a pIC50 of 5.12.
For OCCOc1nc(N2C[C@H]3CC[C@@H](C2)N3)c2cnc(-c3cc(O)cc4ccccc34)c(F)c2n1 [Example 69, 4-(4-((1R,5S)-3,8-diazabicyclo[3.2.1]octan-3-yl)-8-fluoro-2-(2-hydroxyethoxy)pyrido[4,3-d]pyrimidin-7-yl)naphthalen-2-ol], the pIC50 was < 4.78.
For O=S1(=O)CCC(Oc2nc(N3C[C@H]4CC[C@@H](C3)N4)c3cnc(-c4cc(O)cc5ccccc45)c(F)c3n2)CC1 [Example 71, 4-((4-((1R,5S)-3,8-diazabicyclo[3.2.1]octan-3-yl)-8-fluoro-7-(3-hydroxynaphthalen-1-yl)pyrido[4,3-d]pyrimidin-2-yl)oxy)tetrahydro-2H-thiopyran 1,1-dioxide], the pIC50 was < 4.78.
Oc1cc(-c2ncc3c(N4C[C@H]5CC[C@@H](C4)N5)nc(OC4CCOCC4)nc3c2F)c2ccccc2c1 [Example 72, 4-(4-((1R,5S)-3,8-diazabicyclo[3.2.1]octan-3-yl)-8-fluoro-2-((tetrahydro-2H-pyran-4-yl)oxy)pyrido[4,3-d]pyrimidin-7-yl)naphthalen-2-ol] gave a pIC50 of 5.14.
For Oc1cc(-c2ncc3c(N4C[C@H]5CC[C@@H](C4)N5)nc(OCC4CCCC4)nc3c2F)c2ccccc2c1 [Example 73, 4-(4-((1R,5S)-3,8-diazabicyclo[3.2.1]octan-3-yl)-2-(cyclopentylmethoxy)-8-fluoropyrido[4,3-d]pyrimidin-7-yl)naphthalen-2-ol], the pIC50 was < 5.26.
Oc1cc(-c2ncc3c(N4C[C@H]5CC[C@@H](C4)N5)nc(N4CC5(CCOCC5)C4)nc3c2F)c2ccccc2c1 [Example 74, 4-(4-((1R,5S)-3,8-diazabicyclo[3.2.1]octan-3-yl)-8-fluoro-2-(7-oxa-2-azaspiro[3.5]nonan-2-yl)pyrido[4,3-d]pyrimidin-7-yl)naphthalen-2-ol] gave a pIC50 of 5.26.
In the case of OCCCOc1nc(N2C[C@H]3CC[C@@H](C2)N3)c2cnc(-c3cc(O)cc4ccccc34)c(F)c2n1 [Example 75, 4-(4-((1R,5S)-3,8-diazabicyclo[3.2.1]octan-3-yl)-8-fluoro-2-(3-hydroxypropoxy)pyrido[4,3-d]pyrimidin-7-yl)naphthalen-2-ol], the pIC50 was < 4.78.
